Literature values as cited in patent US20210195875A1 (SMC GLOBAL ASSET, INC., priority 2016, published 2021).
“Also recorded” adds a separate entry of the source.

Tests used:
[1] = tested on: mice; settings: icv STZ alone
[2] = tested on: dopaminergic neuron

SMILES | aggregation of a pathologic protein such as amyloid and tau [1] | inflammation and neural function disorder ([1]; compared with a gene modified model) | toxicity in rat primary cultured cells [2]
CN(N=O)C(=O)N[C@H]1C(O)O[C@H](CO)[C@@H](O)[C@@H]1O (mixture of isomers) [icv STZ, streptozotocin] | no aggregation of a pathologic protein | intense inflammation and neural function disorder | 
Cn1c(N)nc2ncc(-c3ccccc3)cc21 [PhIP, 2-amino-1-methyl-6-phenyl-1H-imidazo[4,5-b] pyridine] |  |  | toxicity in a dopaminergic neuron selective manner; also recorded: toxicity in a dopamine nerve selective manner
